# According to publication PMC10610289, “Novel Baicalein-Derived Inhibitors of Plasmodium falciparum” (Pathogens, 2023):
# Where two headings read alike, the source gives them in different places.
# Key:
# [1] = Microsomal stability assay; format: in vitro ADME, mouse; conditions: 37 °C
# Method: Dipotassium hydrogen phosphate, Potassium dihydrogen phosphate, and formic acid were obtained from Merck, Rahway, NJ, USA. Methanol–acetonitrile was procured from Biosolve Chimie, Dieuze, France. Mouse liver microsomes, 20 mg/mL, were received from a third-party vendor in India. Imipramine HCl (catalog no. I0971) and Carbamazepine (catalog no. O0363) were procured from TCI, Gurugram, India. ß-NADPH (product code-99197) was procured from Sisco Research Laboratories, Mumbai, India.
# The in vitro metabolic stability was determined in mouse liver microsomes. To prepare a mouse liver microsomes (MLM) homogenate, 100 µL of microsomes was resuspended in 100 mM phosphate buffer (0.607 g K2HPO4 and 0.212 g KH2PO4 dissolved in 50 mL of de-ionized water), achieving a working concentration of 0.625 mg/mL. Positive control (Imipramine) and test compounds (FNDR-10132, 10136, 10139, and 10999) were spiked individually into the MLM homogenate at a final concentration of 1 µm. To pre-incubate, they were placed in a water bath at 37 °C for 5 min. At least 30 µL was collected in triplicates (0 min samples), and the reaction was quenched using 90 µL of acetonitrile, which contained 500 ng/mL of Carbamazepine as an internal standard. Nicotinamide Adenine Dinucleotide Phosphate (NADPH) in phosphate buffer was added to the remaining MLM at a 1 mM final concentration and further incubated at 37 °C. At the indicated time intervals, 30 µL aliquots were sampled in triplicates, and the reaction was quenched with acetonitrile containing Carbamazepine as the internal standard. The samples were centrifugated for 10 min at 13,000 rpm, and the supernatant was separated for further analysis.
# The analytical method for microsomal stability and protein binding assay is as follows: Chromatographic elution was achieved following isocratic flow on an X-Terra MS C18 50 × 4.6 mm, 2.5 µm, Waters, USA, maintained at 40 °C. The mobile phase contained aqueous 0.1% formic acid in water in solvent A and acetonitrile acidified with 0.1% formic acid in solvent B delivered at 0.300 mL/min. The flow was 15% from solvent A and 85% from solvent B for 4.5 min. A total of 7 μL of the sample was injected for the assay. […] Detection was performed through multiple reaction monitoring (MRM). The ion transitions are as follows: Imipramine, FNDR-10132, FNDR-10136, FNDR-10139, FNDR-10999, and IS at m/z 281.1→86.0, 355.2→115.1, 354.0→298.0, 350.0→186.1, 349→305.2, and m/z 237.0→194.0, respectively. An optimized cone voltage and collision energy were used to ionize the compounds. The MS parameters follow as follows: cone gas flow 50 (L/h); ion source temperature 150 °C; desolvation gas flow 900 (L/h); desolvation temperature 400 °C; and collision gas flow 0.10 (mL/min).
# Dd2 (wt) = assay: Cross-resistance panel, Dd2 wt; format: cell-based, Plasmodium falciparum; conditions: strain Dd2 wt
# Method: (§1) Parasite lines used in the study were P. falciparum 3D7 (Pf3D7 Chloroquine-sensitive) and Plasmodium falciparum K1 (PfK1 Chloroquine-resistant) sourced from the Malaria Research and Reference Reagent Resource Center (MR4), ATCC, Manassas, VA, USA. FNDR-10132 was tested against a cross-resistance panel at Swiss TPH, Allschwil, Switzerland.
# [2] = test system: Dd2 GNF156 (Pfcarl Ile1139Lys); assay: Cross-resistance panel, Dd2 GNF156; format: cell-based, Plasmodium falciparum
# Method: as §1
# [3] = test system: Plasmodium falciparum 3D7 (chloroquine-sensitive); assay: Antimalarial assay (IC50 determination), asexual blood stage, SYBR green; format: cell-based; conditions: Plasmodium falciparum
# Method: as §1
# As per the modified protocol stated by Trager and Jensen, 1976, Plasmodium falciparum parasite lines (Pf3D7 and PfK1) were cultured. Plasmodium strains were maintained in RPMI-1640 medium at 3–5% hematocrit supplemented with 0.2% w/v glucose, 0.5% w/v AlbuMaxII, 0.2% w/v NaHCO3, and 30 μg/mL gentamycin, and, additionally, 15 μM hypoxanthine was added and incubated at 37 °C with 5% O2, 5% CO2, and 90% N2. After 24 h, the medium was changed. After attaining high parasitemia (6–8% mature stage parasite), the culture was sub-passaged with fresh human RBCs.
# All tested compounds were dissolved in a DMSO solvent and a prepared stock solution of 10 mM. The reference drug, Chloroquine diphosphate, was dissolved in CRPMI. Working solutions were made from stock solution after diluting in a CRPMI medium during the experiment. The maximum concentration of DMSO used in this study was <1%. It had no parasiticidal effect.
# The P. falciparum (0.8–1% parasitemia and 1% hematocrit) synchronous culture was exposed for 72 h (at 37 °C, 5% O2, 5% CO2, and 90% N2) to the serially diluted compound in 96-well plates. A total of 100 µL of RBCs lytic buffer (5 mM EDTA, 20 mM Tris pH 7.5, 0.08% Triton X-100, and 0.008% Saponin) containing the SYBR green 1-X final concentration was distributed to each well and incubated for one hour at room temp in the dark. The plates were read under a fluorescence reader at an excitation of 485 ± 20 nm and emission of 535 ± 25 nm. The IC50 values were calculated based on the DNA content of the parasite relative to its control. An inhibitory concentration of 50% (IC50) was determined using the MS-EXEL template.
smiles,measurement,setting,value
CCCCCCc1ccc(-c2cc(=O)c3c(O)c(O)c(O)cc3o2)cc1 [FNDR-10132],stability in mouse liver microsomes (in words),"[1]; 60 min, ß-NADPH",moderate stability
same,Microsomal Stability (Mouse),"[1]; at 30 min, 1 µM, NADPH",99%
same,IC50,Dd2 (wt); Plasmodium falciparum,328 nM
same,Fold shift IC50 rel. Dd2,Dd2 (wt),1.0
same,IC50,"[2]; Plasmodium falciparum, DD2",292 nM
same,Fold shift IC50 rel. Dd2,[2]; strain Dd2 GNF156,0.9
same,IC50,"[3]; 3D7, 72 h, P. falciparum 3D7, 72 h exposure, read-out: IC50",60 nM
same,IC50,"[3]; 3D7, chloroquine-sensitive 3D7, read-out: ABS Assay Pf (3D7)",60 nM
